# Source: ChEMBL document CHEMBL1201862, “PubChem BioAssay data set” (2004)
# Calls of active or inactive are those of the source.
# Columns and labels:
# [1] = THP-1 cell cytotoxicity, dose response, cytotoxicity control for non-replicating M. tuberculosis project (AID 489025); format: functional
# [2] = Vero E6 cell cytotoxicity, dose response, cytotoxicity control for non-replicating M. tuberculosis project, secondary assay (AID 492998); format: functional, VeroE6; conditions: Vero C1008
# [3] = HepG2 cell cytotoxicity, dose response, cytotoxicity control for non-replicating M. tuberculosis project (AID 489018); format: functional; conditions: Mycobacterium tuberculosis
# cells = format: functional
# [4] = target: T1, Endoribonuclease toxin MazF (Escherichia coli K-12, UniProt P0AE70); test: activation of MazEF endoribonuclease cleavage – biochemical, fluorescence, single-stranded RNA substrate, uHTS hits, dose response (AID 588481); format: functional
# T1 sequence (P0AE70 whole entry): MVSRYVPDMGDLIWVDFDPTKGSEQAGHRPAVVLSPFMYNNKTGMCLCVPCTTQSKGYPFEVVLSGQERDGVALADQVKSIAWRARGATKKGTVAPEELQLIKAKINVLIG
# [5] = target: T1, Endoribonuclease toxin MazF; test: substrate-only fluorescence increase artefacts – biochemical, single-stranded RNase substrate, counter-screen for MazEF activator project, dose response (AID 588502); format: functional
# [6] = intracellular Trypanosoma cruzi inhibitors in host cells – cell-based, plate reader, cherry-pick samples, set 3, dose response (AID 651818); format: functional;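 also: compounds incubated with infected cells for about four days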
# [7] = Luminescence Cell-Based Dose Retest to Confirm Inhibitors of Cancer Stem Cells. [Related pubchem assays (depositor defined):AID2717, AID2721]; format: functional; conditions: Homo sapiens
# [8] = target: T2, Carboxy-terminal domain RNA polymerase II polypeptide A small phosphatase 1 (Homo sapiens, UniProt Q9GZU7); test: CTDSP1 inhibitors, concentration-response, biochemical, absorbance readout, ultra-high-throughput screen actives (AID 540297); format: functional
# T2 sequence (Q9GZU7 whole entry): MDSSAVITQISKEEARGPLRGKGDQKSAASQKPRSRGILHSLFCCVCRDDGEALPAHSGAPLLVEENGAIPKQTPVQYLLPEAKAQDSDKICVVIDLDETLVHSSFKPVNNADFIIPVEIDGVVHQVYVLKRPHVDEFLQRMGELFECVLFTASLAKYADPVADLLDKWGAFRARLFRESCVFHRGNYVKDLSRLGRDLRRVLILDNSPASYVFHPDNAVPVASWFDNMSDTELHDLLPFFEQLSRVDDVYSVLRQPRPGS
smiles,measurement,setting,value
COc1ccccc1-c1nnc(NC(=O)c2ccc3ncsc3c2)o1,CC50,[1],> 40 µM (active)
same,CC50,[2],10.3 µM (active)
same,CC50,[3],> 20 µM (active)
same,IC50,cells,7.75 µM (active)
CCOC(=O)[C@H]1[C@H]2COc3ccccc3[C@@H]2N2C(=O)CN(Cc3ccc(C)cc3)C(=O)[C@@]12C,EC50,[4],> 99 µM (inactive)
same,EC50,[5],> 99 µM (inactive)
CCCCN1CC(=O)N2[C@@H]3c4cc(Br)ccc4OC[C@@H]3[C@H](C(=O)OCC)[C@]2(C)C1=O,EC50,[4],> 99 µM (inactive)
same,EC50,[5],39.6 µM (inactive)
C[C@@H]1CCCCO[C@@H](CN(C)Cc2ccc(C(=O)Nc3ccccc3N)cc2)[C@@H](C)CN([C@H](C)CO)C(=O)c2cc(NS(C)(=O)=O)ccc2O1,AC50,[6],4.5 µM (active)
C[C@@H]1CN([C@H](C)CO)C(=O)c2cccc(NC(=O)Nc3ccc(C(F)(F)F)cc3)c2O[C@@H]1CN(C)Cc1ccc(Oc2ccccc2)cc1,AC50,[6],7.23 µM (active)
C[C@@H]1CN([C@H](C)CO)C(=O)c2cc(NC(=O)Nc3cccc4ccccc34)ccc2O[C@@H]1CN(C)Cc1ccc(C(F)(F)F)cc1,AC50,[6],2.44 µM (active)
COc1ccc(NC(=O)Nc2ccc3c(c2)CC(=O)N([C@H](C)CO)C[C@@H](C)[C@@H](CN(C)Cc2ccc(C(=O)Nc4ccccc4N)cc2)O3)cc1,AC50,[6],2.16 µM (active)
O=[N+]([O-])c1cccc(-c2csc(N/N=C/c3cccc(O)c3)n2)c1,AC50,[7],2.8 µM (active)
same,IC50,[8],10.8 µM (active)
